Measurements taken from US5874461A, “Use of Nebivolol as an anti-atherogenic” (priority 1995, dated 1999).

System: C6 glioma cells
Test: GSH content in C6 glioma cultures after glutamate
Format: cell-based
Conditions: for intracellular glutathione levels: 10 mM glutamate, 6 hr or more; for GSH content: glutamate 10 mM, without or with compound 1 μM
Excerpt: Competitive inhibition by glutamate of cystine uptake in certain cells leads to glutathione depletion and oxidative stress. This oxidative stress model has been described for glial C6 glioma cells (Kato et al., 1992. A mechanism for glutamate toxicity in the C6 glioma cells involving inhibition of cystine uptake leading to glutathione depletion. Neurosci. 48:903-914) and for the neuronal cell line N18RE105 (Murphy et al., 1989. Glutamate toxicity in a neuronal cell line involves inhibition of cystine transport leading to oxidative stress. Neuron 2:1547-1558).
Cell culture: The C6 glioma cell line (American Type Culture Collection, CCL 107) was cultivated in DMEM supplemented with 2 or 4 mM glutamine, 1 mM pyruvate and 5 or 10% heat-inactivated foetal calf serum. Cultures were maintained at 37° C. in an air/5~10% CO2, water saturated atmosphere.
Glutathione depletion and evaluation of drugs as antioxidants: Experiments were carried out with cultures plated at 30,000~50,000 cells/cm^2 in 24-well culture plates (for toxicity and lipid peroxide measurements) or at 136,000 cells/cm^2 in 96-well culture plates (for GSH determination). After 8-24 hr, the cultures were switched to culture medium in the absence or presence of the cystine uptake inhibitor glutamate at a final concentration of 10 mM. In order to test drugs for inhibition of oxidative stress, the drug was added together with glutamate (final concentration of solvent was 0.01% hydroxypropyl-β-cylodextrin, 0.1% DMSO). Intracellular glutathione levels were measured after 6~8 hr, lipid peroxides were measured after 14~20 hr, and toxicity and protection were analysed after 48 hr using an LDH assay according to the method of Bergmeyer and Bernt (UV-assay with pyruvate and NADH. In: Methods of Enzymatic Analysis. 1974. H. U. Bergmeyer, ed. Acad. Press, New York, 2nd Ed., pp 574-579).
Determination of GSH content in C6 glioma cultures: GSH levels were analysed by a micromethod, essentially as described by Vandeputte et al. (A microtiterplate assay for total glutathione and glutathione disulfide contents in cultured/isolated cells: performance study of a new miniaturised protocol. 1994. Cell Biol. Toxicol. 10:415-421), with a modification in the washing and homogenisation procedures. Cells (in 96-well plates) were washed with PBS, were homogenised in 50 μl 10 mM HCl containing 1.3% 5-sulfosalicylic acid, and the homogenate was centrifuged at 1200×g for 10 min at 4° C. Forty μl of the supernatant was transferred to a well of a 96-well plate and 200 μl reagent (1 mM 5,5'-dithiobis-(2-nitrobenzoic acid), 0.34 mM NADPH and 6.3 mM EDTA in 143 mM phosphate buffer pH 7.4) was added. After 5 min equilibration to room temperature the reaction was started by adding 40 μl glutathione reductase (8.5 IU/ml 143 mM phosphate buffer, 6.3 mM EDTA pH 7.4). NADPH oxidation was followed at 414 nm for 5 minutes with a Multiskan MCC/340 (Labsystems), and the change in absorbance (DA) per min was calculated. The glutathione content was deduced from a standard curve ranging from 0.2 to 2 nmol commercial GSH per test (DA/min plotted versus concentration).

O[C@H](CNC[C@@H](O)[C@H]1CCc2cc(F)ccc2O1)[C@@H]1CCc2cc(F)ccc2O1 (relative stereo) [nebivolol, (RSSS) and (SRRR) α,α'-iminobis(methylene)bis[6-fluoro-2-chroman-methanol]]
intracellular glutathione levels: remained about half the levels seen in healthy control cells | GSH content: 301 ± 12 pmol/well

Oc1ccc2c(c1)CCC(C(O)CNCC(O)C1CCc3ccccc3O1)O2 (stereo not drawn) [Compound A, [(RRSR)+(RRRS)+(SSSR) +(SSRS)]-α-[[[2-(chroman-2-yl)-2-hydroxy-ethyl]amino]methyl]-6-hydroxy-2-chromanmethanol ethanedioate (1:1)]
intracellular glutathione levels: remained about half the levels seen in healthy control cells | GSH content: 301 ± 12 pmol/well
